Assay results taken from doi:10.1101/2024.06.05.597555v1 (biorxiv, 2024).
Read-outs that look alike come from different tables or passages of the source.

Tests used:
[1] = test system: DENV-2; test: microbe, parasite or virus in culture; settings: Dengue virus, DENV2, Vero, 48 h, read-out: % inhibition
[2] = molecular target: T1, NS2B(H)-NS3pro (DENV-2 NS2B-NS3 protease) (Dengue virus 2 Thailand/NGS-C/1944, UniProt P14340); test: fluorometric protease assay, AMC substrate; format: biochemical; settings: pH 7.5, HEPES, CHAPS; substrate Bz-nKRR-AMC
T1 sequence (P14340 1394-1433 limits assumed): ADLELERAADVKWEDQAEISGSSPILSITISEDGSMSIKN
T1 sequence (P14340 1476-1660 limits assumed): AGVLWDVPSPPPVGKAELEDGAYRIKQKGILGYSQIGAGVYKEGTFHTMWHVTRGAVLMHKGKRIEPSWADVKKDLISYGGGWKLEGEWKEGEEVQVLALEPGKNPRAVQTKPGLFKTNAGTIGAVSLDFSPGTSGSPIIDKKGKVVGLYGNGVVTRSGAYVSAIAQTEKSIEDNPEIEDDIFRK

[3] = molecular target: T1, NS2B(H)-NS3pro (DENV-2 NS2B-NS3 protease); settings: read-out: IC50 (C7.5-HEPES AMC); AMC substrate, HEPES pH 7.5, CHAPS; inhibitor
[4] = molecular target: T2, DENV2proHeLa NS2B-NS3 protease (Dengue virus 2 Thailand/16681/84, UniProt P29990); test: cell-based; design: species or system DENV2proHeLa (HeLa)
[5] = molecular target: T2, DENV2proHeLa NS2B-NS3 protease; test: cell-based; design: species or system DENV2proHeLa (HeLa); settings: HeLa, read-out: % inhibition
[6] = in vitro; design: species or system DENV2proHeLa (HeLa); settings: human, denv2prohela cells
[7] = molecular target: T1, NS2B(H)-NS3pro (DENV-2 NS2B-NS3 protease); test: biochemical; settings: read-out: % inhibition
[8] = in vitro; design: species or system DENV2proHeLa (HeLa); settings: human, denv2prohela cells; remark: listed apart in the source
[9] = molecular target: T2, DENV2proHeLa NS2B-NS3 protease; test: cell-based; design: species or system DENV2proHeLa (HeLa); settings: HeLa, read-out: % inhibition; remark: listed apart in the source
[10] = read-out: DENV2proHeLa EC50, inhibitor

T2 sequence (P29990 1476-2093 limits assumed): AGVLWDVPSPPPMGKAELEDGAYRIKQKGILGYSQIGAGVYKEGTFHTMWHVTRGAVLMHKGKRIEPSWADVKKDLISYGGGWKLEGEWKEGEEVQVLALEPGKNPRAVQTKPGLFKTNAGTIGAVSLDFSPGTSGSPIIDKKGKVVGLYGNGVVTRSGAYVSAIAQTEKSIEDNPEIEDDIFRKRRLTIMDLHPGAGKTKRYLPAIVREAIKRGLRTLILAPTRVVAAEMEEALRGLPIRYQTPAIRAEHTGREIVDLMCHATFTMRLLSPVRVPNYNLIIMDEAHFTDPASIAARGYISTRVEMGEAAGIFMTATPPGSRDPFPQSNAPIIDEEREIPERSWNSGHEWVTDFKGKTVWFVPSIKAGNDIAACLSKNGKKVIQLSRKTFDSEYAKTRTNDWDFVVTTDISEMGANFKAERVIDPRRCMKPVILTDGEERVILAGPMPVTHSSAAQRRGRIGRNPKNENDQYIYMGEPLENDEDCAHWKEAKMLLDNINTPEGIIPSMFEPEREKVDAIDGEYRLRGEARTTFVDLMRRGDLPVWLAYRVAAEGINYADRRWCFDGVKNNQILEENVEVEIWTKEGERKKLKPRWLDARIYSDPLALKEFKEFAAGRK
T2 sequence (P29990 1346-1475 partner limits assumed): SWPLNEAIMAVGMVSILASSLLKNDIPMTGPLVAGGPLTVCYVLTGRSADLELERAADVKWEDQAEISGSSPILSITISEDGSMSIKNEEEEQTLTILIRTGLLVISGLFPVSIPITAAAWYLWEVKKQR

Compound | IC50 [3] [µM] | inhibition at 12.5 µM [5] [%] | CC50 [6] [µM] | inhibition at 50 µM [7] [%] | CC50 [8] [µM] | further results
COc1ccc(/C=C/C(=O)C(=O)NC(C)(C)C)cc1OC [GG-80-1] | – | – | – | – | – | inhibition at 25 µM [1]: 97%
CC(C)(C)NC(=O)C(=O)/C=C/c1c[nH]c2ccccc12 [GG-92] | – | – | – | – | – | inhibition at 25 µM [1]: 40%
NC(=O)c1cccc(NC(=O)[C@@H](NC(=O)c2ccc(Oc3ccccc3)cc2)c2ccc(OCc3ccccc3)cc2)c1 [compound 1] | – | – | – | – | – | IC50 [2]: 13 µM
CC(C)Cc1ccc(C(C)C(=O)N[C@H](C(=O)Nc2cccc(C(N)=O)c2)c2ccc(OCc3ccccc3)cc2)cc1 (stereo partly shown) [compound 3, 3] | 8 | 84 | > 25 | – | – | EC50 [4]: 3.8 µM
CC(C(=O)N[C@H](C(=O)Nc1cccc(C(N)=O)c1)c1ccc(OCc2ccccc2)cc1)c1cccc(Oc2ccccc2)c1 (stereo partly shown) [compound 4, 4] | 9.7 | 86 | > 50 | 100 | – | EC50 [4, 10]: 4 µM; inhibition at 25 µM [1]: 85%
NC(=O)c1cccc(NC(=O)[C@@H](NC(=O)c2ccc(-c3ccccc3)o2)c2ccc(OCc3ccccc3)cc2)c1 [compound 5, 5] | 9.3 | 85 | > 100 | 100 | – | EC50 [4, 10]: 5.9 µM; inhibition at 25 µM [1]: 96%
CC(C(=O)NCC1(CC(=O)N[C@H](C(=O)Nc2cccc(C(N)=O)c2)c2ccc(OCc3ccccc3)cc2)CCCCC1)c1ccc2c(c1)[nH]c1ccc(Cl)cc12 (stereo partly shown) [compound 6, 6] | 8 | 60 | > 50 | 99 | – | EC50 [4, 10]: 2.9 µM
COc1cc(C(=O)N[C@H](C(=O)Nc2cccc(C(N)=O)c2)c2ccc(OCc3ccccc3)cc2)ccc1Oc1ccccc1 [compound 8, 8] | 12 | 86 | > 100 | 99 | – | EC50 [4]: 1.4 µM
NC(=O)c1cccc(NC(=O)[C@@H](NC(=O)Cc2ccccc2Nc2c(Cl)cccc2Cl)c2ccc(OCc3ccccc3)cc2)c1 [compound 9, 9] | 10 | 60 | > 50 | 99 | – | EC50 [4]: 8.6 µM
COc1ccc2cc([C@H](C)C(=O)N[C@H](C(=O)Nc3cccc(C(N)=O)c3)c3ccc(OCc4ccccc4)cc3)ccc2c1 [compound 10, 10] | 12 | 71 | > 100 | – | – | EC50 [4, 10]: 3.7 µM
NC(=O)c1cccc(NC(=O)[C@@H](NC(=O)Cc2ccc(Oc3ccccc3)cc2)c2ccc(OCc3ccccc3)cc2)c1 [compound 11, 11] | 14 | 78 | > 50 | 99 | – | EC50 [4]: 6.9 µM
NC(=O)c1cccc(NC(=O)C(CC2CCCCC2)NC(=O)c2ccc(Oc3ccccc3)cc2)c1 (stereo not shown) [compound 64, 64] | – | – | – | – | 40 | inhibition at 12.5 µM [9]: 82%
NC(=O)c1cccc(NC(=O)C(CCc2ccccc2)NC(=O)c2ccc(Oc3ccccc3)cc2)c1 (stereo not shown) [compound 66, 66] | – | – | – | – | > 50 | inhibition at 12.5 µM [9]: 67%
NC(=O)c1cccc(NC(=O)C(Cc2ccc(NCc3ccccc3)cc2)NC(=O)c2ccc(Oc3ccccc3)cc2)c1 (stereo not shown) [compound 68] | – | – | – | – | > 50 | IC50 [2]: 15 µM
NC(=O)c1cccc(NC(=O)C(Cc2ccccc2)NC(=O)c2ccc(Oc3ccccc3)cc2)c1 (stereo not shown) [compound 70, 70] | – | – | – | – | > 50 | inhibition at 12.5 µM [9]: 55%
NC(=O)c1cccc(NC(=O)C(CCC(=O)Nc2ccccc2)NC(=O)c2ccc(Oc3ccccc3)cc2)c1 (stereo not shown) [compound 71, 71] | – | – | – | – | > 50 | inhibition at 12.5 µM [9]: 45%
CC(C)CC(NC(=O)c1ccc(Oc2ccccc2)cc1)C(=O)Nc1cccc(C(N)=O)c1 (stereo not shown) [compound 73, 73] | – | – | – | – | ≥ 50 | inhibition at 12.5 µM [9]: 36%
